Measurements reported in PMC8033486 (Frontiers in Pharmacology, 2021).
“Also recorded” adds a separate entry of the source. Counter-ions that a name gives are not always drawn. Like-named read-outs stand apart in the source and are kept apart here.

B1: interferon-γ (protein, UniProt P01579 24-161, looked up)
Interferon gamma: QDPYVKEAENLKKYFNAGHSDVADNGTLFLGILKNWKEESDRKIMQSQIVSFYFKLFKNFKDDQSIQKSVETIKEDMNVKFFNSNKKKRDDFEKLTNYSVTDLNVQRKAIHELIQVMAELSPAAKTGKRKRSQMLFRG

Tests used:
SARS-CoV-2 [1] = experiment: microbe, parasite or virus in culture; type: cell-based; details: for Inhibition of SARS-CoV-2-induced cytopathic effect, result in words: Vero E6; for IC50: read-out: IC50 (Mean +/- SD)
[2] = system: lentiviruses pseudotyped with SARS-CoV-2 Spike; type: cell-based
in vitro = details: African green monkey
[3] = system: lentiviruses pseudotyped with SARS-CoV-2 Spike; type: cell-based; remark: listed apart in the source
SARS-CoV-2 [4] = type: cell-based; details: Vero E6, day 3 post-infection, non-toxic concentrations
[5] = CC50, Vero E6, no virus, 3 days

Row | Molecule | CC50 (Vero E6 cells; Vero E6, no virus, 3 days) [µM] | Inhibition of SARS-CoV-2-induced cytopathic effect, result in words (SARS-CoV-2 [1]) | Block of SARS-CoV-2 Spike pseudovirus entry, result in words [2] | IC50 (Mean +/- SD) (SARS-CoV-2 [1]) | further results
1 | CCN1CCN(Cc2ccc(Nc3ncc(F)c(-c4cc(F)c5nc(C)n(C(C)C)c5c4)n3)nc2)CC1 [Abenaciclib] | > 1 |  |  |  | 
2 | CCOC(=O)c1c(CSc2ccccc2)n(C)c2cc(Br)c(O)c(CN(C)C)c12 [Arbidol HCl] |  | failed to protected Vero E6 cells from SARS-CoV-2 induced cytopathic effect | partial blocking effect |  | CC50 at 3 days (in vitro; [5]): > 40 µM
3 | COC(=O)N[C@H](C(=O)N[C@@H](Cc1ccccc1)[C@@H](O)CN(Cc1ccc(-c2ccccn2)cc1)NC(=O)[C@@H](NC(=O)OC)C(C)(C)C)C(C)(C)C.O=S(=O)(O)O [Atazanavir Sulfate] | > 20 |  |  | Not Active | 
4 | CCCNC(=O)[C@H]1O[C@@H]1C(=O)N[C@H](C(=O)N1CCC[C@H]1C(=O)OC)[C@@H](C)CC [CA-074-Me] | > 34 | could not be confirmed using the specific cathepsin B inhibitor CA-074-Me due to drug-associated toxicity | partial blocking effect | Not Active | 
5 | CN(C)C(=O)COC(=O)Cc1ccc(OC(=O)c2ccc(NC(=N)N)cc2)cc1 [Camostat] |  | no antiviral effect on Vero E6 cells | failed to inhibit viral fusion; also recorded: displays no activity |  | CC50 (in vitro): > 100 µM; Block of SARS-CoV-2 Spike pseudovirus entry, result in words [3]: activity was rescued
6 | Cl.Cl.O=C(O)COCCN1CCN(C(c2ccccc2)c2ccc(Cl)cc2)CC1 (centres unmarked) [Cetirizine dihydorcloride] |  |  |  | Not Active | CC50 (Vero E6 cells): > 100 µM
7 | CCN(CC)CCCC(C)Nc1ccnc2cc(Cl)ccc12 (centres unmarked) [Chloroquine] |  |  |  |  | IC50 (SARS-CoV-2 [1]; Severe acute respiratory syndrome coronavirus 2, Vero C1008, 72 h): 3.9 µM; IC50 (SARS-CoV-2 [1]): 3.86 µM; Block of SARS-CoV-2 Spike pseudovirus entry, result in words [3]: reduced its inhibitory activity
8 | CC(C)C(=O)OCC(=O)[C@@]12O[C@H](C3CCCCC3)O[C@@H]1C[C@H]1[C@@H]3CCC4=CC(=O)C=C[C@]4(C)[C@H]3[C@@H](O)C[C@@]12C [Ciclesonide] |  | failed to protected Vero E6 cells from SARS-CoV-2 induced cytopathic effect | partial blocking effect |  | CC50 at 3 days (in vitro; CC50): > 20 µM
9 | CCOC(=O)[C@H]1O[C@@H]1C(=O)N[C@@H](CC(C)C)C(=O)NCCC(C)C [E-64d] | > 100 | partial inhibitory activity | active when TMPRSS2 is not present | partialy active at 100 | 
10 | CC(C)OC(=O)C(C)(C)Oc1ccc(C(=O)c2ccc(Cl)cc2)cc1 [Fenofibrate] |  |  | viral entry was abrogated |  | CC50 at 3 days (in vitro): > 100 µM; SARS-CoV-2 release to the supernatant (nucleoprotein ELISA), result in words (SARS-CoV-2 [4]): less active inhibiting viral release as compared to the rest of the inhibitors tested
11 | CCCCN1C[C@H](O)[C@@H](O)[C@H](O)[C@H]1CO [NB-DNJ] | > 100 | decreased SARS-CoV-2 cytopathic effect | failed to block viral entry | active at 100 | 
12 | C[C@@H]1CCN(C(=O)CC#N)C[C@@H]1N(C)c1ncnc2[nH]ccc12 [Tofacitinib] |  | failed to protected Vero E6 cells from SARS-CoV-2 induced cytopathic effect |  |  | CC50 at 3 days (in vitro; [5]): > 100 µM
13 | CCCCOc1nc(N)c2c(n1)N(Cc1cccc(CN3CCCC3)c1)CC(=O)N2 [Vesatolimod] |  | not able to protect from the viral-induced cytopathic effect |  |  | CC50 at 3 days (in vitro; [5]): > 20 µM
14 | Alpha-1 Antitrypsin |  | exerted an effect but required high concentrations |  |  | IC50, result in words (SARS-CoV-2 [1]; Vero E6, cytopathic effect): active at 12.5; CC50 (Vero E6 cells; Vero E6, no virus): > 12.5 mg/mL
15 | B1 |  |  |  |  | CC50 (Vero E6 cells; interferons, Vero E6, no virus, 3 days): > 100 × 10^2 IU/mL
